From PubChem BioAssay (NCI)
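96-well plates; 48 h exposure; 5 concentrations. Endpoints by linear interpolation between flanking doses. Not reached: highest tested concentration assigned. Definition used: TGI = concentration required for complete inhibition of growth.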

Legend:
Assay in all cases: growth of human tumour cells (NCI), 48 h
SK-MEL-2 melanoma = test system: SK-MEL-2 melanoma
NCI-H460 lung = test system: NCI-H460 lung
NCI-H226 lung = test system: NCI-H226 lung
SK-MEL-5 melanoma = test system: SK-MEL-5 melanoma
MDA-MB-231 breast = test system: MDA-MB-231 breast
HT29 colon = test system: HT29 colon
MALME-3M melanoma = test system: MALME-3M melanoma
HCC-2998 colon = test system: HCC-2998 colon
UACC-257 melanoma = test system: UACC-257 melanoma
OVCAR-5 ovarian = test system: OVCAR-5 ovarian
EKVX NSCLC = test system: EKVX NSCLC
SF-268 CNS = test system: SF-268 CNS
OVCAR-4 ovarian = test system: OVCAR-4 ovarian
U251 CNS = test system: U251 CNS
CAKI-1 renal = test system: CAKI-1 renal
SNB-75 CNS = test system: SNB-75 CNS
HOP-62 NSCLC = test system: HOP-62 NSCLC
T-47D breast = test system: T-47D breast
ACHN renal = test system: ACHN renal
MDA-N = test system: MDA-N
SW-620 colon = test system: SW-620 colon
M14 melanoma = test system: M14 melanoma
SN12C renal = test system: SN12C renal
SF-295 CNS = test system: SF-295 CNS
HCT-15 colon = test system: HCT-15 colon
A549 NSCLC = test system: A549 NSCLC
K-562 leukemia = test system: K-562 leukemia
MCF7 breast = test system: MCF7 breast
DU-145 prostate = test system: DU-145 prostate
HS 578T breast = test system: HS 578T breast
SNB-19 CNS = test system: SNB-19 CNS
OVCAR-3 ovarian = test system: OVCAR-3 ovarian
CCRF-CEM leukemia = test system: CCRF-CEM leukemia
NCI/ADR-RES ovarian = test system: NCI/ADR-RES ovarian
786-0 renal = test system: 786-0 renal
NCI-H23 lung = test system: NCI-H23 lung
COLO 205 colon = test system: COLO 205 colon
SK-OV-3 ovarian = test system: SK-OV-3 ovarian
UACC-62 melanoma = test system: UACC-62 melanoma
MDA-MB-435 = test system: MDA-MB-435
NCI-H522 lung = test system: NCI-H522 lung
KM12 colon = test system: KM12 colon
RPMI-8226 leukemia = test system: RPMI-8226 leukemia
IGROV1 ovarian = test system: IGROV1 ovarian
SK-MEL-28 melanoma = test system: SK-MEL-28 melanoma
LOX IMVI melanoma = test system: LOX IMVI melanoma
PC-3 prostate = test system: PC-3 prostate
RXF 393 renal = test system: RXF 393 renal
OVCAR-8 ovarian = test system: OVCAR-8 ovarian
TK-10 renal = test system: TK-10 renal
HCT-116 colon = test system: HCT-116 colon

Nc1nc(N)c2nc(CNc3ccc(C(=O)NC(CCC(=O)O)C(=O)O)cc3F)cnc2n1 (stereo unspecified)
TGI (SK-MEL-2 melanoma): > 100 µM
TGI (NCI-H460 lung): > 100 µM
TGI (NCI-H226 lung): > 100 µM
TGI (SK-MEL-5 melanoma): > 100 µM
TGI (MDA-MB-231 breast): > 100 µM
TGI (HT29 colon): > 100 µM
TGI (MALME-3M melanoma): > 100 µM
TGI (HCC-2998 colon): > 100 µM
TGI (UACC-257 melanoma): > 100 µM
TGI (OVCAR-5 ovarian): > 100 µM
TGI (EKVX NSCLC): > 100 µM
TGI (SF-268 CNS): > 100 µM
TGI (OVCAR-4 ovarian): > 100 µM
TGI (U251 CNS): > 100 µM
TGI (CAKI-1 renal): > 100 µM
TGI (SNB-75 CNS): > 100 µM
TGI (HOP-62 NSCLC): > 100 µM
TGI (T-47D breast): > 100 µM
TGI (ACHN renal): > 100 µM
TGI (MDA-N): > 100 µM
TGI (SW-620 colon): > 100 µM
TGI (M14 melanoma): > 100 µM
TGI (SN12C renal): > 100 µM
TGI (SF-295 CNS): > 100 µM
TGI (HCT-15 colon): > 100 µM
TGI (A549 NSCLC): > 100 µM
TGI (K-562 leukemia): > 76.7 µM
TGI (MCF7 breast): > 100 µM
TGI (DU-145 prostate): > 100 µM
TGI (HS 578T breast): > 100 µM
TGI (SNB-19 CNS): > 100 µM
TGI (OVCAR-3 ovarian): > 100 µM
TGI (CCRF-CEM leukemia): > 100 µM
TGI (NCI/ADR-RES ovarian): > 100 µM
TGI (786-0 renal): > 100 µM
TGI (NCI-H23 lung): > 100 µM
TGI (COLO 205 colon): > 100 µM
TGI (SK-OV-3 ovarian): > 100 µM
TGI (UACC-62 melanoma): > 100 µM
TGI (MDA-MB-435): > 100 µM
TGI (NCI-H522 lung): > 100 µM
TGI (KM12 colon): > 100 µM
TGI (RPMI-8226 leukemia): 67.2 µM
TGI (IGROV1 ovarian): > 100 µM
TGI (SK-MEL-28 melanoma): > 100 µM
TGI (LOX IMVI melanoma): > 100 µM
TGI (PC-3 prostate): > 100 µM
TGI (RXF 393 renal): > 100 µM
TGI (OVCAR-8 ovarian): > 100 µM
TGI (TK-10 renal): > 100 µM
TGI (HCT-116 colon): > 100 µM
